Experimental data reported in the supplement of paper PMC12076712.

Columns and labels:
Experiment in all cases: pIC50, kinobeads binding competition
FGFR1 = FGFR1 (UniProt P11362)
How it was run: (§1)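 pIC50 was obtained by fitting fold changes against vehicle to logistic dose-response curves with the R drc package, using biological duplicates. Kinobeads-bound proteins were digested and measured by TMT10 LC-MS/MS. Before this, either living Jurkat cells received nine compound concentrations (top 30 μM, 1:4 steps) for 60 min at 37 °C prior to lysis, or Jurkat lysate or a 1:1:1:1 HEK293/K-562/HepG2/placenta lysate mix received nine concentrations (top 30 μM, 1:5 steps) for 60 min at 4 °C.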

TTK = biological target: T1, TTK (UniProt P33981)
T1 sequence (whole entry): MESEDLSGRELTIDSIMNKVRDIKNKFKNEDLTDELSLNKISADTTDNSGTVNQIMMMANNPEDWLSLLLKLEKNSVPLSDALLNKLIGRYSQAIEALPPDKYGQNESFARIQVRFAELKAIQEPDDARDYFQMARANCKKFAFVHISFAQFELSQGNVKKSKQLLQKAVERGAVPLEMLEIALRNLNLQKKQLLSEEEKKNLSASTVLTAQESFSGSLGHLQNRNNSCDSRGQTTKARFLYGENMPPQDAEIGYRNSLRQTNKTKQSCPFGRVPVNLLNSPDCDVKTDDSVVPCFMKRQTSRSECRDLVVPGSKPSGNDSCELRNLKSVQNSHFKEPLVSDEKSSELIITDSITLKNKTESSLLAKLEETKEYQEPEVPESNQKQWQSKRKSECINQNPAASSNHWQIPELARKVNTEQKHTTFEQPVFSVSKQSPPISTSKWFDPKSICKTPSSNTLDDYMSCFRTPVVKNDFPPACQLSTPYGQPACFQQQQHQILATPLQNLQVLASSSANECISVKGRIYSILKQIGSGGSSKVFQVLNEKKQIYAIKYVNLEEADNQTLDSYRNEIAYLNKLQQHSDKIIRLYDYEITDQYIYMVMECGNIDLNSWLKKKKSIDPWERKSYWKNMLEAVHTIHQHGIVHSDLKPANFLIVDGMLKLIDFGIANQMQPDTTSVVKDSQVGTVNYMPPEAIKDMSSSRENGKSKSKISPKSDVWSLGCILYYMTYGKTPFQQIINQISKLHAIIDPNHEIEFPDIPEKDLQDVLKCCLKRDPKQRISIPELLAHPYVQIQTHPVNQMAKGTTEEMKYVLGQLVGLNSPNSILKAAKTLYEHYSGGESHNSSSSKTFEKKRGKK
How it was run: as §1

MAP3K15 = biological target: T2, MAP3K15 (UniProt Q6ZN16); conditions: cell material: Lysate mix
T2 sequence (whole entry): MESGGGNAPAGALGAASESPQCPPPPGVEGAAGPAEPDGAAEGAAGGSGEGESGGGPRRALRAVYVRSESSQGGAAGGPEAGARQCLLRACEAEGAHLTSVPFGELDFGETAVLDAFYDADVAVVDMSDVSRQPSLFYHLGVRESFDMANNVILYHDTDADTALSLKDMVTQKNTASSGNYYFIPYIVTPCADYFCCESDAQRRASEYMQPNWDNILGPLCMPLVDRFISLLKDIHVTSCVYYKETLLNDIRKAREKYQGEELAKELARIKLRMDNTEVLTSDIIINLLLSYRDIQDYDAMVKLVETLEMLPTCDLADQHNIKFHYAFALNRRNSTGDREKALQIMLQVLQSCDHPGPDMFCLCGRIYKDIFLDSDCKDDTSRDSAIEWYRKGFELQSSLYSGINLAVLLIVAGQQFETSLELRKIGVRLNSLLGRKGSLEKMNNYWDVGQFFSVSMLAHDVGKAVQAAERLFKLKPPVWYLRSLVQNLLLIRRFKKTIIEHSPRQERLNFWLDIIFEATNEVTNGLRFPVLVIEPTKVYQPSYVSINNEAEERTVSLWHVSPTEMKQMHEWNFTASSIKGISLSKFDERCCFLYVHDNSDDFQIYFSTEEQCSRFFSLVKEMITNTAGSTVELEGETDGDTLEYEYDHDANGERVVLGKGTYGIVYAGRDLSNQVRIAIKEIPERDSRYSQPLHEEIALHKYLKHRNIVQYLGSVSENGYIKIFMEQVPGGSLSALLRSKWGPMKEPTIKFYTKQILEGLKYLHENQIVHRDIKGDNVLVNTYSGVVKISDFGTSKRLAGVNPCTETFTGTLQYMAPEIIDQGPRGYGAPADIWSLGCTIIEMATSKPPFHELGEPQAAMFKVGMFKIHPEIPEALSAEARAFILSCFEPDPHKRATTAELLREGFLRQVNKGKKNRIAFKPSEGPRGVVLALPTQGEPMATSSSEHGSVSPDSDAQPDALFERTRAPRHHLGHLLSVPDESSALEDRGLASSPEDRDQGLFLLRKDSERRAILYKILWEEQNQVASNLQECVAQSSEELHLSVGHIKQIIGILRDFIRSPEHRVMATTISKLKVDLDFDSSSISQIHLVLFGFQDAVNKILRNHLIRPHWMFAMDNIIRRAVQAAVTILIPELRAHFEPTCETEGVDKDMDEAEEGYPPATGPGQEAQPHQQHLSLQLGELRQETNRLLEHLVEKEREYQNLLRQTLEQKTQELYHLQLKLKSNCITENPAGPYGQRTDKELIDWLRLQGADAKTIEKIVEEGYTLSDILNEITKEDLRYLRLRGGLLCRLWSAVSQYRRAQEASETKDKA
How it was run: as §1

DYRK1A = DYRK1A (UniProt Q13627)
How it was run: as §1

FGFR1, sequence (P11362 whole entry, looked up): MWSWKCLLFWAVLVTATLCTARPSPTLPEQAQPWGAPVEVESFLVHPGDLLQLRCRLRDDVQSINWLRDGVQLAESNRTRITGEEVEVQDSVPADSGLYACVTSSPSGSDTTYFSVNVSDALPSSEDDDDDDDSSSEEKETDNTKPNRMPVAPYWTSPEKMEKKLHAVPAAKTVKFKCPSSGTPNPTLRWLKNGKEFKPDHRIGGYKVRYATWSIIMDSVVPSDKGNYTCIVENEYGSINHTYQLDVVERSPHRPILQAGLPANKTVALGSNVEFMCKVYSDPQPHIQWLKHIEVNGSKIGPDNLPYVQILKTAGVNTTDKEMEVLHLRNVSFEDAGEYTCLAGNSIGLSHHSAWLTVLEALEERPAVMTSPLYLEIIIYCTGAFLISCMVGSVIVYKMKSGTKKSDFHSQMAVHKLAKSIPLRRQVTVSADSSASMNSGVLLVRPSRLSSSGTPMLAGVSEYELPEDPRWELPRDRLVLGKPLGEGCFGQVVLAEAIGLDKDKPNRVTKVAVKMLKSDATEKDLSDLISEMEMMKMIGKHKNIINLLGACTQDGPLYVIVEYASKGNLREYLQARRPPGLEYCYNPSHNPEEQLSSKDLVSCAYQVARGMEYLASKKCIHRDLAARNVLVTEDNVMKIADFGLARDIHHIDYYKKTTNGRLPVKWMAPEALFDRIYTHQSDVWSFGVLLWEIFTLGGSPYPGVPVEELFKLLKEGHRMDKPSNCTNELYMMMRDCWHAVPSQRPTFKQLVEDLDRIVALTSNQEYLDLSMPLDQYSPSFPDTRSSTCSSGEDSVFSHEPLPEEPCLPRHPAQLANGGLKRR

| pIC50 (FGFR1; cell material: Lysate mix) | pIC50 (TTK; cell material: Lysate mix) | pIC50 (MAP3K15) | pIC50 (DYRK1A; cell material: Lysate mix) | SMILES | pIC50 (FGFR1; cell material: Jurkat lysate) | pIC50 (TTK; cell material: Jurkat cells) | pIC50 (TTK; cell material: Jurkat lysate) | pIC50 (DYRK1A; cell material: Jurkat cells) | pIC50 (DYRK1A; cell material: Jurkat lysate) | pIC50 (FGFR1; cell material: Jurkat cells) |
| --- | --- | --- | --- | --- | --- | --- | --- | --- | --- | --- |
| < 4.52 | < 4.52 | < 4.52 | < 4.52 | O=C(NCCNC(=O)c1cc(Nc2cc(C3CC3)[nH]n2)nc(N2CCN(Cc3ccc(S(=O)(=O)F)cc3)CC2)n1)OC1CC/C=C/CCC1 (centres undefined) | < 4.52 | < 4.52 | < 4.52 | < 4.52 | < 4.52 | – |
| < 4.52 | < 4.52 | < 4.52 | < 4.52 | Cc1cc(Nc2cc(C(=O)NCCNC(=O)OC3CC/C=C/CCC3)nc(N3CCN(Cc4ccc(S(=O)(=O)F)cc4)CC3)n2)n[nH]1 (centres undefined) | – | – | – | – | – | – |
| 5.24 | < 4.52 | < 4.52 | < 4.52 | CCNC(=O)c1cc(Nc2cc(C3CC3)[nH]n2)nc(N2CCN(Cc3ccc(S(=O)(=O)F)cc3)CC2)n1 | – | – | – | – | – | – |
| < 4.52 | < 4.52 | 4.94 | < 4.52 | CCNC(=O)c1cc(Nc2cc(C)[nH]n2)nc(N2CCN(Cc3ccc(S(=O)(=O)F)cc3)CC2)n1 | – | – | – | – | – | – |
| < 4.52 | < 4.52 | 4.92 | < 4.52 | C#CCNC(=O)c1cc(Nc2cc(C)[nH]n2)nc(N2CCN(Cc3ccc(S(=O)(=O)F)cc3)CC2)n1 | – | – | – | – | – | – |

| SMILES | pIC50 (FGFR1; cell material: Lysate mix) | pIC50 (TTK; cell material: Lysate mix) | pIC50 (MAP3K15) | pIC50 (DYRK1A; cell material: Lysate mix) | pIC50 (FGFR1; cell material: Jurkat lysate) | pIC50 (TTK; cell material: Jurkat cells) | pIC50 (TTK; cell material: Jurkat lysate) | pIC50 (DYRK1A; cell material: Jurkat cells) | pIC50 (DYRK1A; cell material: Jurkat lysate) | pIC50 (FGFR1; cell material: Jurkat cells) |
| --- | --- | --- | --- | --- | --- | --- | --- | --- | --- | --- |
| C#CCNC(=O)c1cc(Nc2cc(C3CC3)[nH]n2)nc(N2CCN(Cc3ccc(S(=O)(=O)F)cc3)CC2)n1 | 4.81 | < 4.52 | < 4.52 | – | < 4.52 | 5.56 | < 4.52 | 5.41 | < 4.52 | 5.72 |
